From patent US10435402B2, “Bicyclic compounds, compositions and medicinal applications thereof” (Advinus Therapeutics Limited, priority 2015, dated 2019)
pIC50: −log10 of the molar value.

Molecular target: T1, GAL4-DBD/RORγ-LBD (Homo sapiens, UniProt P51449)
T1 construct: expressed in transfected cells; host or cells: HEK293T
Test: RORγt transactivation reporter assay (GAL4-DBD/RORγ-LBD, luciferase read out)
Type: cell-based
Details: HEK293T cells, GAL4-UAS luciferase reporter, overnight (18-24 hours) incubation
Protocol: RORγt Transactivation Reporter Assay Protocol: The inhibition of RORγt activity in cells was evaluated using a GAL4-UAS reporter system in HEK293T cells employing a luciferase read out. RORγt ligand binding domain (LBD) was cloned into the pFN26A (BIND) vector (Promega #[…]) containing yeast GAL4-DBD to form a RORγt LBD-GAL4 DBD fusion construct. This vector also contained a Renilla Luciferase reporter expressed under a SV40 promoter which was used as a control for transfection efficiency. A transcriptional reporter expression construct pGL4.35 (Promega #[…]) was used to monitor RORγt LBD-GAL4 activity. This construct contained nine repeats of GAL4 binding site/upstream activating sequence (UAS) controlling expression of a firefly luciferase reporter Luc2P. When transfected together in cells, the RORγ-LBD-DBD fusion protein drives expression of the luciferase reporter. For the assay, HEK293T cells were plated in a flat bottom 96 well plate at a density of 25,000 cells/well/100 ul of DMEM high glucose medium (Sigma D5648) containing 10% FBS and antibiotic. Cells were incubated overnight at 37 C/5% CO2. The next day, medium from the wells was removed and replaced with 30 ul of OptiMEM® (Invitrogen #31985070). 100 ng each of pBIND RORγ LBD-DBD and pGL4.35 reporter plasmids was transfected in HEK293T cells using Lipofectamine 2000 (Invitrogen #11668-019) where 10 ul of transfection complex was added to the each well. Control transfections were performed with an empty pF[…] vector and pGL4.35 vector. The transfected cells were incubated for 5 hours at 37 C/5% CO2. After incubation, 40 ul of DMEM high glucose medium without FBS, with antibiotic was added to each well. A 10 mM stock solution of test compound prepared in 100% DMSO was first diluted in DMSO and then in DMEM medium without FBS to give the required final compound concentration. Concentration of DMSO in the test compound solution was 0.4%. 20 ul of diluted compound solution was added to each well. Cells were incubated overnight (18-24 hours) at 37 C/5% CO2. The next day, luciferase assay was performed using the Dual Glo® Luciferase Assay System (Promega #E2940). Briefly, medium was removed from the wells and replaced with 40 ul 1× Passive Lysis Buffer (Promega #E1941). Plate was incubated at room temperature on a plate shaker at 1000 rpm for 40 min. After incubation, plate was centrifuged at 1000 rpm for 2 min. 20 ul of the lysate was transferred from each well to that of solid white half area 96 well plate (Costar #3693). Dual Glo® Reagent was thawed to room temperature and 20 ul was added to each well containing lysate. Plate was centrifuged at 1000 rpm/2 min and incubated at room temperature on a plate shaker at 600 rpm/25 min. Firefly luciferase signal was measured on a Tecan Safire2. After measurement, 20 ul of Dual Glo® Stop Glo® Reagent was added to each well. Plate was centrifuged at 1000 rpm/2 min and incubated at room temperature on a plate shaker at 600 rpm/25 min. Renilla luciferase signal was measured on Tecan Safire 2. IC50 values for test compounds were calculated from the normalized luciferase signal data using GraphPad Prism software.

T1 sequence (P51449 269-508 limits assumed): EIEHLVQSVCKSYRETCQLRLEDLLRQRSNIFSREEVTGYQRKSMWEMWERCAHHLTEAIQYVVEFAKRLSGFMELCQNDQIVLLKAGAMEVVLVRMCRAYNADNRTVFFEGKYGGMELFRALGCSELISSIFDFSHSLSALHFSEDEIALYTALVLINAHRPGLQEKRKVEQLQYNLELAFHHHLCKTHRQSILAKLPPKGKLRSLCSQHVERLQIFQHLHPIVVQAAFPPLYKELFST
T1 sequence (P04386 1-147 partner limits assumed): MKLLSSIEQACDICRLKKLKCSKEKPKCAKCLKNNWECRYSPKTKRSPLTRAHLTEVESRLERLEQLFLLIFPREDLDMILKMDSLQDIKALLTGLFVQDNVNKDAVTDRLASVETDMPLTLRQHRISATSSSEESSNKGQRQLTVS

Row | Compound | pIC50
1 | Cc1cccc(Cl)c1C(=O)c1cc(-c2ccc(C(=O)O)cc2)c2ccccn12 [Example A-16, 4-[3-(2-chloro-6-methyl-benzoyl)indolizin-1-yl]benzoic acid] | > 6.30
2 | CCOC(=O)c1ccc(-c2cc(C(=O)c3c(Cl)cccc3C(F)(F)F)n3ccccc23)cc1 [Example A-1, Ethyl 4-[3-[2-chloro-6-(trifluoromethyl)benzoyl]indolizin-1-yl]benzoate] | > 6.30
3 | CCOC(=O)c1ccc(-c2cc(C(=O)c3c(Cl)cccc3Cl)n3cccc(C(F)(F)F)c23)cc1 [Example A-62, ethyl 4-[3-(2,6-dichlorobenzoyl)-8-(trifluoromethyl)indolizin-1-yl]benzoate] | > 6.30
4 | O=C(O)c1ccc(-c2cc(C(=O)c3c(Cl)cccc3C(F)(F)F)n3ccccc23)cc1 [Example A-2, 4-[3-[2-chloro-6-(trifluoromethyl)benzoyl]indolizin-1-yl]benzoic acid] | > 6.30
5 | ethyl 4-[3-(2-chloro-6-fluoro-benzoyl)indolizin-1-yl]-3-fluoro-benzoate [Example A-25] | > 6.30
6 | CCOC(=O)c1ccc(-c2cc(C(=O)c3c(F)cccc3F)n3ccccc23)c(F)c1 [Example A-38, ethyl 4-[3-(2,6-difluorobenzoyl)indolizin-1-yl]-3-fluoro-benzoate] | > 6.30
7 | CCOC(=O)c1ccc(-c2cc(C(=O)c3c(F)cccc3Cl)n3cccc(F)c23)cc1 [Example A-32, ethyl 4-[3-(2-chloro-6-fluoro-benzoyl)-8-fluoro-indolizin-1-yl]benzoate] | > 6.30
8 | CCOC(=O)c1ccc(-c2c(F)c(C(=O)c3c(Cl)cccc3Cl)n3ccccc23)cc1 [Example B-1, Ethyl 4-[3-(2,6-dichlorobenzoyl)-2-fluoro-indolizin-1-yl]benzoate] | > 6.30
9 | ethyl 4-[3-(2-chloro-6-fluoro-benzoyl)-8-fluoro-indolizin-1-yl]-3-fluoro-benzoate [Example A-33] | > 6.30
10 | 4-[3-(2,6-dibromobenzoyl)indolizin-1-yl]benzoic acid [Example A-53] | > 5.30
11 | O=C(O)c1ccc(-c2cc(C(=O)c3c(Cl)ccc(F)c3Cl)n3ccccc23)c(F)c1 [Example A-18, 4-[3-(2,6-dichloro-3-fluoro-benzoyl)indolizin-1-yl]-3-fluoro-benzoic acid] | > 6.30
12 | CC(C)(C)OC(=O)N1CC=C(c2cc(C(=O)c3c(Cl)cccc3Cl)n3ccccc23)CC1 [Example A-54, tert-butyl 4-[3-(2,6-dichlorobenzoyl)indolizin-1-yl]-3,6-dihydro-2H-pyridine-1-carboxylate] | < 5.30
13 | O=C(O)c1ccc(-c2cc(C(=O)c3c(F)ccc(F)c3F)n3ccccc23)cc1 [Example A-42, 4-[3-(2,3,6-trifluorobenzoyl)indolizin-1-yl]benzoic acid] | > 6.30
14 | O=C(O)c1ccc(-c2cc(C(=O)c3c(Cl)cccc3C(F)(F)F)n3ccccc23)c(F)c1 [Example A-12, 4-[3-[2-chloro-6-(trifluoromethyl)benzoyl]indolizin-1-yl]-3-fluoro-benzoic acid] | > 6.30
15 | O=C(O)c1ccc(-c2cc(C(=O)c3c(Cl)cccc3C(F)(F)F)n3cccc(Cl)c23)cc1 [Example A-58, 4-[8-chloro-3-[2-chloro-6-(trifluoromethyl)benzoyl]indolizin-1-yl]benzoic acid] | > 6.30
16 | O=C(O)c1ccc(-c2c(F)c(C(=O)c3c(Cl)ccc(F)c3Cl)n3ccccc23)cc1 [Example B-6, 4-[3-(2,6-dichloro-3-fluoro-benzoyl)-2-fluoro-indolizin-1-yl]benzoic acid] | > 6.30
17 | CCOC(=O)c1ccc(-c2cc(C(=O)c3c(Cl)cccc3Cl)n3ccccc23)cc1 [Example A-6, ethyl 4-[3-(2,6-dichlorobenzoyl)indolizin-1-yl]benzoate] | > 6.30
18 | O=C(O)c1ccc(-c2cc(C(=O)c3c(F)cccc3F)n3cccc(F)c23)cc1 [Example A-47, 4-[3-(2,6-difluorobenzoyl)-8-fluoro-indolizin-1-yl]benzoic acid] | > 6.30
19 | CCOC(=O)c1ccc(-c2cc(C(=O)c3c(Cl)cccc3Cl)n3cccc(F)c23)cc1 [Example A-21, ethyl 4-[3-(2,6-dichlorobenzoyl)-8-fluoro-indolizin-1-yl]benzoate] | > 6.30
20 | O=C(O)c1ccc(-c2cc(C(=O)c3c(Cl)cccc3C(F)(F)F)n3ccccc23)cc1F [Example A-60, 4-[3-[2-chloro-6-(trifluoromethyl)benzoyl]indolizin-1-yl]-2-fluoro-benzoic acid] | > 6.30
21 | COC(=O)c1ccc(-c2cc(C(=O)c3c(Cl)ccc(F)c3Cl)n3ccccc23)c(F)c1 [Example A-17, methyl 4-[3-(2,6-dichloro-3-fluoro-benzoyl)indolizin-1-yl]-3-fluoro-benzoate] | > 6.30
22 | O=C(O)c1ccc(-c2cc(C(=O)c3c(F)ccc(F)c3F)n3ccccc23)c(F)c1 [Example A-44, 3-fluoro-4-[3-(2,3,6-trifluorobenzoyl)indolizin-1-yl]benzoic acid] | > 6.30
23 | COC(=O)c1ccc(-c2cc(C(=O)c3c(F)cccc3F)n3ccccc23)c(F)c1 [Example A-5, methyl 4-[3-(2,6-difluorobenzoyl)indolizin-1-yl]-3-fluoro-benzoate] | > 6.30
24 | O=C(O)c1ccc(-c2cc(C(=O)c3c(F)cccc3Cl)n3cccc(F)c23)cc1 [Example A-34, 4-[3-(2-chloro-6-fluoro-benzoyl)-8-fluoro-indolizin-1-yl]benzoic acid] | > 6.30

Further lines, results first:

Row | pIC50 | Compound
25 | > 6.00 | O=C(O)c1ccc(-c2cc(C(=O)c3c(Cl)cccc3Cl)n3cc(C(=O)N4CCOCC4)ccc23)cc1 [Example D-3, 4-[3-(2,6-dichlorobenzoyl)-6-(morpholine-4-carbonyl)indolizin-1-yl]benzoic acid]
26 | > 6.30 | CCOC(=O)c1ccc(-c2c(C)c(C(=O)c3c(Cl)cccc3Cl)n3ccccc23)c(F)c1 [Example C-1, ethyl 4-[3-(2,6-dichlorobenzoyl)-2-methyl-indolizin-1-yl]-3-fluoro-benzoate]
27 | > 6.00 | O=C(O)c1ccc(-c2cc(C(=O)c3c(Cl)cccc3Cl)n3cc(C(=O)N4CCCCC4)ccc23)cc1 [Example D-4, 4-[3-(2,6-dichlorobenzoyl)-6-(piperidine-1-carbonyl)indolizin-1-yl]benzoic acid]
28 | > 6.30 | COC(=O)c1ccc(-c2c(C)c(C(=O)c3c(Cl)cccc3C(F)(F)F)n3ccccc23)c(F)c1 [Example C-8, methyl 4-[3-[2-chloro-6-(trifluoromethyl)benzoyl]-2-methyl-indolizin-1-yl]-3-fluoro-benzoate]
29 | > 6.30 | Cc1c(-c2ccc(C(=O)O)cc2)c2ccccn2c1C(=O)c1c(Cl)cccc1Cl [Example C-4, 4-[3-(2,6-dichlorobenzoyl)-2-methyl-indolizin-1-yl]benzoic acid]
30 | < 5.30 | CCS(=O)(=O)N1CCC=C(c2cc(C(=O)c3c(Cl)ccc(F)c3Cl)n3ccccc23)C1 [Example G-2, (2,6-dichloro-3-fluoro-phenyl)-[1-(1-ethylsulfonyl-3,6-dihydro-2H-pyridin-5-yl)indolizin-3-yl]methanone]
31 | > 5.30 | O=C(O)c1ccc(-c2cc(Oc3c(Cl)cccc3Cl)n3ccccc23)c(F)c1 [Example E-2, 4-[3-(2,6-dichlorophenoxy)indolizin-1-yl]-3-fluoro-benzoic acid]
32 | > 6.30 | O=C(O)c1ccc(-c2cc(C(=O)c3c(Cl)cccc3C(F)(F)F)n3c2CCCC3)cc1 [Example H-1, 4-[3-[2-chloro-6-(trifluoromethyl)benzoyl]-5,6,7,8-tetrahydroindolizin-1-yl]benzoic acid]
33 | > 6.30 | Cc1c(-c2ccc(C(=O)O)cc2)c2ccccn2c1C(=O)c1c(Cl)cccc1C(F)(F)F [Example C-7, 4-[3-[2-chloro-6-(trifluoromethyl)benzoyl]-2-methyl-indolizin-1-yl]benzoic acid]
34 | > 6.30 | O=C(O)c1ccc(-c2nc(C(=O)c3c(Cl)ccc(F)c3Cl)n3ccccc23)cc1 [Example I-1, Sodium 4-[3-(2,6-dichloro-3-fluoro-benzoyl)imidazo[1,5-a]pyridin-1-yl]benzoate]
